Earlier results, collected in PMC7365549 (ACS Omega, 2020).

Columns and labels:
5-HT3 = conditions: read-out: Ki, binding to 5-HT3 receptor
[1] = molecular target: T1, human serotonin receptor 5-HT3 (Homo sapiens, UniProt P46098); conditions: read-out: Inhibition Constants (Ki) 5-HT3; comparison values
T1 sequence (P46098 24-478): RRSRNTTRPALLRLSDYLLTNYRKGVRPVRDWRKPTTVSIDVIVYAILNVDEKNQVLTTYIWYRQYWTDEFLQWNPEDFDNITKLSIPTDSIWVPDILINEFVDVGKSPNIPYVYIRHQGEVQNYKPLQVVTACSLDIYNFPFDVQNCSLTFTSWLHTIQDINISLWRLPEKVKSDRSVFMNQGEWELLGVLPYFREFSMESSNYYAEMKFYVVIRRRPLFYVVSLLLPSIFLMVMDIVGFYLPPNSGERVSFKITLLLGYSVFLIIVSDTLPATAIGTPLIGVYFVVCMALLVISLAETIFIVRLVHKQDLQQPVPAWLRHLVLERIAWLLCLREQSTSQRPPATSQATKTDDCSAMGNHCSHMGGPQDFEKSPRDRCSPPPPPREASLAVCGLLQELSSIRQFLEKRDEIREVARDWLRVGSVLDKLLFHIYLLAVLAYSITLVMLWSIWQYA

[2] = molecular target: human serotonin receptor 5-HT2A (Homo sapiens, UniProt P28223); conditions: read-out: Inhibition Constants (Ki) 5-HT2A; comparison values
Sequence of human serotonin receptor 5-HT2A (P28223 whole entry): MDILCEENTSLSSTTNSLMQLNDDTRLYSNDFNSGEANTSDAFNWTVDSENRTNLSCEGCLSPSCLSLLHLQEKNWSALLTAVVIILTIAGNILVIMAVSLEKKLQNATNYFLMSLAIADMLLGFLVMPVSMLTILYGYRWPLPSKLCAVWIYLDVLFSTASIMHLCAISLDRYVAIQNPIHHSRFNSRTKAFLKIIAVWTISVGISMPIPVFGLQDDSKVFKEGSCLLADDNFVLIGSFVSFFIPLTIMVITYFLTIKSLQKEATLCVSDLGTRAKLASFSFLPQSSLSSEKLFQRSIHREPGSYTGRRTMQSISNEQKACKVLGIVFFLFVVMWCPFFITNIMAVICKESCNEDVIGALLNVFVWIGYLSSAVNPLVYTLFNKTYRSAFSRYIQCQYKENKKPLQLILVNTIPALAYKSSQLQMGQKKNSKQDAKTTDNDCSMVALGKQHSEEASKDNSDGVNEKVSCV

[3] = molecular target: T2, human serotonin receptor 5-HT1A (Homo sapiens, UniProt P08908); conditions: read-out: Inhibition Constants (Ki) 5-HT1A; comparison values
T2 sequence (P08908 1-422): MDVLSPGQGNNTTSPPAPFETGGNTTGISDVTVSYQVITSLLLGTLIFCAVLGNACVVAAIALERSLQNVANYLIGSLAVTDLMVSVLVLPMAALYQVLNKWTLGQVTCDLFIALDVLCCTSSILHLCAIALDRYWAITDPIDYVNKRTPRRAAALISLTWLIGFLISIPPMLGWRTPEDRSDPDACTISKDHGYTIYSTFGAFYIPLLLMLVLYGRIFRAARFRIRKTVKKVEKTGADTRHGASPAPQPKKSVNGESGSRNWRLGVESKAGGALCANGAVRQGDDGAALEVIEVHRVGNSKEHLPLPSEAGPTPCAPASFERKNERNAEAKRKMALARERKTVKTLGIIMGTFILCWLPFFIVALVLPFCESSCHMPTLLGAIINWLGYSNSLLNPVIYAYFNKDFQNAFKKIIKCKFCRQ

**Q.** For C[N+](C)(C)CCc1c[nH]c2ccc([O-])cc12 [Bufotenidine, bufotenidine], which Ki (5-HT3) is on record?
**A.** The Ki was 0.017 µM.

**Q.** For CN(C)CCc1c[nH]c2cccc(O)c12 [psilocin], which Ki [1] is on record?
**A.** The Ki was > 10 µM.

**Q.** For CN(C)CCc1c[nH]c2cccc(OP(=O)(O)O)c12 [psilocybin], which Ki [1] is on record?
**A.** The Ki was > 10 µM.

**Q.** And the Ki [2]?
**A.** The Ki was > 10 µM.

**Q.** What about the Ki [3] of the same molecule?
**A.** The Ki was > 10 µM.
